From patent publication US20140206735A1, “HIGH DOSAGE TOPICAL METRONIDAZOLE AQUEOUS-BASED GEL FORMULATIONS AND THEIR USE TO TREAT ROSACEA” (Medicis Pharmaceutical Corporation, priority 2012, published 2014)

Test: Saturated MTZ solubility at 25° C. in solvents and solvent mixtures
Type: physicochemical
[1] = MTZ in Phosphate buffer, 50 mM, pH 4
[2] = MTZ in Phosphate buffer, 50 mM, pH 6

Solubility at 25° C. (n = 3, mean ± SEM) (MTZ in 1 wt % aq. polysorbate 60): 9.72 ± 0.08 mg/g
Solubility at 25° C. (n = 3, mean ± SEM) (MTZ in 2 wt % aq. Benzyl alcohol): 10.81 ± 0.040 mg/g
Solubility at 25° C. (n = 3, mean ± SEM) (MTZ in 10 wt % aq. Lutrol F127): 9.15 ± 0.09 mg/g
Solubility at 25° C. (n = 3, mean ± SEM) (MTZ in 50 wt % aq. glycerol): 7.62 ± 0.19 mg/g
Solubility at 25° C. (n = 3, mean ± SEM) (MTZ in Deionized water): 8.70 ± 0.09 mg/g
Solubility at 25° C. (n = 1) (MTZ in Ethanol): 19.96 mg/g
Solubility at 25° C. (n = 3, mean ± SEM) (MTZ in Ethanol): 16.36 ± 0.12 mg/g
Solubility at 25° C. (n = 1) (MTZ in Ethylene glycol): 21.34 mg/g
Solubility at 25° C. (n = 1) (MTZ in Glycerol): 8.35 mg/g
Solubility at 25° C. (n = 1) (MTZ in PEG 400): 24.78 mg/g
Solubility at 25° C. (n = 3, mean ± SEM) (MTZ in PEG 400): 18.79 ± 1.23 mg/g
Solubility at 25° C. (n = 1) [1]: 9.09 mg/g
Solubility at 25° C. (n = 3, mean ± SEM) [1]: 8.26 ± 0.45 mg/g
Solubility at 25° C. (n = 1) (MTZ in Phosphate buffer, 50 mM, pH 5): 9.13 mg/g
Solubility at 25° C. (n = 1) [2]: 9.10 mg/g
Solubility at 25° C. (n = 3, mean ± SEM) [2]: 8.57 ± 0.05 mg/g
Solubility at 25° C. (n = 1) (MTZ in Phosphate buffer, 50 mM, pH 7): 9.07 mg/g
Solubility at 25° C. (n = 1) (MTZ in Propylene glycol): 20.74 mg/g
Solubility at 25° C. (n = 3, mean ± SEM) (MTZ in Propylene glycol): 18.62 ± 0.25 mg/g
Solubility at 25° C. (n = 1) (MTZ in tetraglycol): 29.65 mg/g
saturated MTZ solubility at 25° C. (in certain alcohols (ethanol, benzyl alcohol), diols (ethylene glycol, propylene glycol), polyethers (PEG 400)): at least 20 mg/g
Structure (SMILES): Cc1ncc([N+](=O)[O-])n1CCO [MTZ, 2-(2-methyl-5-nitro-1H-imidazol-1-yl)ethanol]
